According to patent US20240150377A1, “MODULATORS OF CYSTIC FIBROSIS TRANSMEMBRANE CONDUCTANCE REGULATOR” (VERTEX PHARMACEUTICALS INCORPORATED, priority 2020, published 2024):
Like-named read-outs stand apart in the source and are kept apart here. One block for each compound: values may come before it.

Target: T1, CFTR (Homo sapiens, UniProt P13569, DEL508-508)
T1 construct: endogenous in cells; host or cells: primary human bronchial epithelial cells from CF subjects (F508del/MF-HBE), differentiated at air-liquid interface
Assay: HBE assay: Ussing chamber assay of CFTR-mediated short-circuit currents
Type: cell-based
Details: for EC50: read-out: HBE EC50
Method in brief: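 CFTR-mediated Isc (μA/cm²) equals the peak response to apical 20 μM forskolin minus the residual after a 20 μM each BPO/GlyH-101/CFTR inhibitor 172 cocktail, recorded in Ussing chambers at Vhold 0 mV, 37 °C, pH 7.4, with 30 μM apical amiloride. Cells were F508del/MF HBE cultures preincubated 18-24 h with corrector (concentration range or 10 μM) plus 1 μM ivacaftor in 20% human serum.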

[1] = Table 12, read-out: HBE Max Activity (%)
[2] = Table 13, read-out: HBE Max Activity (%)
[3] = Table 11, read-out: HBE Max Activity (%)
[4] = Table 13, at 10 μM, read-out: HBE Activity at 10 μM (%)
[5] = Table 10, read-out: HBE Max activity (%)
[6] = HBE assay, read-out: HBE Max activity (%)
[7] = Table 10, at 10 μM, read-out: HBE activity at 10 (μM) (%)
[8] = Table 12, at 10 μM, read-out: HBE Activity at 10 μM (%)

T1 sequence (P13569 with tags, fused parts or gaps DEL508-508): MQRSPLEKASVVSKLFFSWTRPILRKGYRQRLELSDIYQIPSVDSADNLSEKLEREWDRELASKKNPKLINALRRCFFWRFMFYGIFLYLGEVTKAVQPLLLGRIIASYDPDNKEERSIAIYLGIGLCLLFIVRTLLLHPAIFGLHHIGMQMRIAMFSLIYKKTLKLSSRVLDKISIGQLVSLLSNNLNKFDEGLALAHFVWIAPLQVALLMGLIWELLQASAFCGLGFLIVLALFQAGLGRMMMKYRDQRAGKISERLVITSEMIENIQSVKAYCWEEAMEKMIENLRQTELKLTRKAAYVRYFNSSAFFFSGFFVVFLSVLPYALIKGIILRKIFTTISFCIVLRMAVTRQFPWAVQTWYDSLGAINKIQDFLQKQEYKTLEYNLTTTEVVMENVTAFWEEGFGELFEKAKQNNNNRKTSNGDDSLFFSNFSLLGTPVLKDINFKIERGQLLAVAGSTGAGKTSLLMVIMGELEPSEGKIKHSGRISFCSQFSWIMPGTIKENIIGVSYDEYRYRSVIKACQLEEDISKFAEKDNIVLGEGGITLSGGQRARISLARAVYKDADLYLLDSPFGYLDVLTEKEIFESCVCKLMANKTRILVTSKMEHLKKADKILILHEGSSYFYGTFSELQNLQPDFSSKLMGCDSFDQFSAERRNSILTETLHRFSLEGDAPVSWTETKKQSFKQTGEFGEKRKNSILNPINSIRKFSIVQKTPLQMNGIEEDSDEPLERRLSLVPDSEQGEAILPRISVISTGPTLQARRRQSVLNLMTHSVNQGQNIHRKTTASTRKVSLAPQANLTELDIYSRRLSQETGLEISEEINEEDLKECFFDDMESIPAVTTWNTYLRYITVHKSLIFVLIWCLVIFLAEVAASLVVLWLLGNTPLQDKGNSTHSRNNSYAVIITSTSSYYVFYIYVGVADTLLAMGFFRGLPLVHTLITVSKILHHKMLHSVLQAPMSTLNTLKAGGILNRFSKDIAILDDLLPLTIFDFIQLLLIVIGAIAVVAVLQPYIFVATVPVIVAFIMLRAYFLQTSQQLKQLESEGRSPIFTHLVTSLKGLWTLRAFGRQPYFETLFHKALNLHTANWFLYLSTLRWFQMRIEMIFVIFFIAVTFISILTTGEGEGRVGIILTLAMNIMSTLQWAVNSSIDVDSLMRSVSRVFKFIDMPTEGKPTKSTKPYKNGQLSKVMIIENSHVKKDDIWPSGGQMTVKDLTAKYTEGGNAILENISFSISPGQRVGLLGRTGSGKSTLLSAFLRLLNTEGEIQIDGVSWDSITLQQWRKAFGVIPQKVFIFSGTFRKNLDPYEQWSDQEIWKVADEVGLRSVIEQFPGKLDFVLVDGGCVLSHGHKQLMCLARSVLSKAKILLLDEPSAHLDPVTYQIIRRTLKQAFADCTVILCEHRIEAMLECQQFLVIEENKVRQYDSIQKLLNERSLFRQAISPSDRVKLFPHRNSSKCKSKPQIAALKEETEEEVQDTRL

EC50 (Table 11): < 1000 nM | Emax [3]: > 60%
Compound: Cc1cccc(C)c1-c1cc2nc(n1)NS(=O)(=O)c1cccc(c1)C(=O)N(Cc1nccc(NCC(C)(C)C)n1)[C@H](CC(C)(C)C)CO2 [Compound 646]

activation at 10 µM [4]: > 600%
Compound: Cc1cccc(C)c1-c1cc2nc(n1)NS(=O)(=O)c1cccc(c1)C(=O)N(CC(=O)N1CCC(c3ccccc3)C1)[C@H](CC(C)(C)C)CO2 (stereo partly shown) [Compound 191]

Emax [5]: > 60%
Compound: Cc1cccc(C)c1-c1cc2nc(n1)NS(=O)(=O)c1cccc(c1)C(=O)N(Cc1ccc(C(C)(C)C)nc1C)[C@H](CC(C)(C)C)CO2 [Compound 528]

EC50 (HBE assay): < 1000 nM | Emax [6]: > 60%
Compound: COCCCOc1cnc(CN2C(=O)c3cccc(c3)S(=O)(=O)Nc3nc(cc(-c4c(C)cccc4C)n3)OC[C@H]2CC(C)(C)C)c(F)c1 [Compound 1385]

EC50 (Table 13): < 1000 nM | Emax [2]: > 60%
Compound: Cc1cccc(C)c1-c1cc2nc(n1)NS(=O)(=O)c1cccc(c1)C(=O)N(Cc1ncc(N3CC4(CCOC4)C3)cn1)[C@H](CC(C)(C)C)CO2 [Compound 1054]

activation at 10 µM [4]: > 600%
Compound: Cc1cccc(C)c1-c1cc2nc(n1)NS(=O)(=O)c1cccc(c1)C(=O)N(C(=O)c1ccccc1)[C@H](CC(C)(C)C)CO2 [Compound 256]

activation at 10 µM [4]: > 600%
Compound: Cc1cccc(C)c1-c1cc2nc(n1)NS(=O)(=O)c1cccc(c1)C(=O)N(Cc1c(F)cc(C3CCOCC3)cc1F)[C@H](CC(C)(C)C)CO2 [Compound 517]

EC50 (Table 12): 3000 to 30000 nM | Emax [1]: > 60%
Compound: Cc1cccc(C)c1-c1cc2nc(n1)NS(=O)(=O)c1cccc(c1)C(=O)N(CC(=O)O)[C@H](CC(C)(C)C)CO2 [Compound 453]

EC50 (HBE assay): < 1000 nM | Emax [6]: > 60%
Compound: Cc1cccc(C)c1-c1cc2nc(n1)NS(=O)(=O)c1cccc(c1)C(=O)N(Cc1cncc(N(C)C3CCOC3)n1)[C@H](CC(C)(C)C)CO2 (stereo partly shown) [Compound 1349]

EC50 (Table 12): < 1000 nM | Emax [1]: > 60%
Compound: Cc1cccc(C)c1-c1cc2nc(n1)NS(=O)(=O)c1cccc(c1)C(=O)N(Cc1nccc(N(C)[C@@H]3CCC34CCC4)n1)[C@H](CC(C)(C)C)CO2 [Compound 451]

activation at 10 µM [7]: < 300%
Compound: Cc1cccc(C)c1-c1cc2nc(n1)NS(=O)(=O)c1cccc(c1)C(=O)N(CC1CCC(NCC(=O)O)CC1)[C@H](CC(C)(C)C)CO2 (stereo partly shown) [Compound 912]

activation at 10 µM [7]: > 60%
Compound: Cc1cccc(C)c1-c1cc2nc(n1)NS(=O)(=O)c1cccc(c1)C(=O)N(C(C)c1ccc(-c3c(C)n[nH]c3C)cc1)[C@H](CC(C)(C)C)CO2 (stereo partly shown) [Compound 294]

The next lines start with the compound.

Compound: Cc1cccc(C)c1-c1cc2nc(n1)NS(=O)(=O)c1cccc(c1)C(=O)N(Cc1ncc(OCCOC(C)C)cn1)[C@H](CC(C)(C)C)CO2 [Compound 559]
EC50 (Table 12): < 1000 nM | Emax [1]: > 60%

Compound: Cc1cccc(C)c1-c1cc2nc(n1)NS(=O)(=O)c1cccc(c1)C(=O)N(Cc1ncc(N3CCC(C)(C)C3)cc1C(F)(F)F)[C@H](CC(C)(C)C)CO2 [Compound 1118]
EC50 (Table 13): < 1000 nM | Emax [2]: > 60%

Compound: Cc1cccc(C(C)C)c1-c1cc2nc(n1)NS(=O)(=O)c1cccc(c1)C(=O)N(Cc1ccc(N3CCOCC3)cn1)[C@H](CC(C)(C)C)CO2 [Compound 821]
activation at 10 µM (Table 11, at 10 μM, read-out: HBE Activity at 10 μM (%)): > 60% | EC50 (Table 11): < 1000 nM | Emax [3]: > 60%

Compound: Cc1cccc(C)c1-c1cc2nc(n1)NS(=O)(=O)c1cccc(c1)C(=O)N(Cc1cccc(N3CCC[C@H]3C)n1)[C@H](CC1CC1)CO2 [Compound 463]
EC50 (Table 12): < 1000 nM | Emax [1]: > 60%

Compound: COC1CCN(c2cnc(CN3C(=O)c4cccc(c4)S(=O)(=O)Nc4nc(cc(-c5c(C)cccc5C)n4)OC[C@H]3CC(C)(C)C)nc2)C1 (stereo partly shown) [Compound 599]
EC50 (Table 11): 1000 to 3000 nM | Emax [3]: > 60%

Compound: Cc1cccc(C)c1-c1cc2nc(n1)NS(=O)(=O)c1cccc(c1)C(=O)N(Cc1ccc(Br)cn1)[C@H](CC(C)(C)C)CO2 [Compound 993]
activation at 10 µM [4]: > 600%

Compound: COCCN(c1cccc(CN2C(=O)c3cccc(n3)S(=O)(=O)Nc3nc(cc(-c4c(C)cccc4C)n3)OC[C@H]2CC(C)(C)C)n1)C(C)C [Compound 1142]
EC50 (Table 13): 1000 to 3000 nM | Emax [2]: > 60%

Compound: Cc1cccc(C)c1-c1cc2nc(n1)NS(=O)(=O)c1cccc(c1)C(=O)N(Cc1ncc(N3CCC(C)(C)C3)cn1)[C@H](CC1CCC1)CO2 [Compound 1477]
EC50 (HBE assay): < 1000 nM | Emax [6]: > 60%

Compound: Cc1cccc(C)c1-c1cc2nc(n1)NS(=O)(=O)c1cccc(c1)C(=O)N(Cc1nccc(C(C)(C)C)n1)[C@H](CC(C)(C)C)CO2 [Compound 814]
EC50 (Table 11): < 1000 nM | Emax [3]: > 60%

Compound: COC[C@H]1COCCN1c1cccc(CN2C(=O)c3cccc(c3)S(=O)(=O)Nc3nc(cc(-c4c(C)cccc4C)n3)OC[C@H]2CC(C)(C)C)n1 [Compound 1399]
activation at 10 µM (HBE assay, 10 μM, read-out: HBE Activity at 10 μM (%)): > 60%

Compound: Cc1cccc(C)c1-c1cc2nc(n1)NS(=O)(=O)c1cccc(c1)C(=O)N(Cc1nccc(N(C)C3CC(C)(C)C3)n1)[C@H](CC(C)(C)C)CO2 [Compound 436]
EC50 (Table 13): < 1000 nM | Emax [2]: > 60%

Compound: COC1CC2(C1)CN(c1cnc(CN3C(=O)c4cccc(c4)S(=O)(=O)Nc4nc(cc(-c5c(C)cccc5C)n4)OC[C@H]3CC(C)(C)C)nc1)C2 [Compound 868]
EC50 (Table 13): < 1000 nM | Emax [2]: > 60%

Compound: COCCN(c1cccc(CN2C(=O)c3cccc(c3)S(=O)(=O)Nc3nc(cc(-c4c(C)cccc4C)n3)OC[C@H]2CC(C)(C)C)n1)C(C)C [Compound 564]
EC50 (Table 12): < 1000 nM | Emax [1]: > 60%

Compound: COCCNc1cccnc1CN1C(=O)c2cccc(c2)S(=O)(=O)Nc2nc(cc(-c3c(C)cccc3C)n2)OC[C@H]1CC(C)(C)C [Compound 378]
EC50 (Table 10): < 1000 nM | Emax [5]: > 60%

Compound: Cc1cccc(C)c1-c1cc2nc(n1)NS(=O)(=O)c1cccc(c1)C(=O)N(Cc1ccc(C(=O)O)cn1)[C@H](CC(C)(C)C)CO2 [Compound 247]
activation at 10 µM [4]: 30 to 60%

Compound: Cc1cccc(C)c1-c1cc2nc(n1)NS(=O)(=O)c1cccc(c1)C(=O)N(Cc1nc(C(C)C)cn1C)[C@H](CC(C)(C)C)CO2 [Compound 267]
EC50 (Table 12): < 1000 nM | Emax [1]: > 60%

Compound: Cc1cccc(C)c1-c1cc2nc(n1)NS(=O)(=O)c1cccc(c1)C(=O)N(Cc1ccc(-c3ccccc3)cn1)[C@H](CC(C)(C)C)CO2 [Compound 476]
HBE Max activity (%) (Table 10): +++ (+++ is >60%) | EC50 (Table 10): 1000 to 3000 nM

Compound: Cc1cccc(C)c1-c1cc2nc(n1)NS(=O)(=O)c1cccc(c1)C(=O)N(Cc1ncc(N3CC[C@H]3C)cn1)[C@H](CC(C)(C)C)CO2 (stereo in doubt) [Compound 1406]
EC50 (HBE assay): < 1000 nM

Compound: Cc1cccc(C)c1-c1cc2nc(n1)NS(=O)(=O)c1cccc(c1)C(=O)N(Cc1cccc(N3CCC[C@H]3CO)n1)[C@H](CC(C)(C)C)CO2 [Compound 279]
EC50 (Table 12): < 1000 nM | Emax [1]: > 60%

Compound: Cc1cccc(C)c1-c1cc2cc(n1)NS(=O)(=O)c1cccc(c1)C(=O)N(Cc1ncc(CC(C)C)cn1)[C@H](CC(C)(C)C)CO2 [Compound 523]
activation at 10 µM [8]: > 600%

Compound: Cc1cccc(C)c1-c1cc2nc(n1)NS(=O)(=O)c1cccc(c1)C(=O)N(Cc1nc(C(C)C)cn1COCC[Si](C)(C)C)[C@H](CC(C)(C)C)CO2 [Compound 265]
activation at 10 µM [8]: > 600%

Compound: Cc1cccc(C)c1-c1cc2nc(n1)NS(=O)(=O)c1cccc(c1)C(=O)N(Cc1ccc(N3CC4(CC(=O)C4)C3)cn1)[C@H](CC(C)(C)C)CO2 [Compound 1056]
EC50 (Table 13): 1000 to 3000 nM | Emax [2]: > 60%

Compound: Cc1cccc(C)c1-c1cc2nc(n1)NS(=O)(=O)c1cccc(c1)C(=O)N(CC(=O)N1CCc3ccccc3C1C)[C@H](CC(C)(C)C)CO2 (stereo partly shown) [Compound 211]
activation at 10 µM [4]: > 600%
